Consider one compound from patent US20240058283A1, “THE MODE OF ACTION OF N-MeDCPA ON TRPC CHANNELS” (West Virginia University Board of Governors on Behalf of …, priority 2022, published 2024).

In one assay the target is T1, TRPC5 (Homo sapiens, UniProt Q9UL62).
T1 construct: expressed in transfected cells; host or cells: HEK293 (transient transfection)
T1 sequence (Q9UL62 1-973): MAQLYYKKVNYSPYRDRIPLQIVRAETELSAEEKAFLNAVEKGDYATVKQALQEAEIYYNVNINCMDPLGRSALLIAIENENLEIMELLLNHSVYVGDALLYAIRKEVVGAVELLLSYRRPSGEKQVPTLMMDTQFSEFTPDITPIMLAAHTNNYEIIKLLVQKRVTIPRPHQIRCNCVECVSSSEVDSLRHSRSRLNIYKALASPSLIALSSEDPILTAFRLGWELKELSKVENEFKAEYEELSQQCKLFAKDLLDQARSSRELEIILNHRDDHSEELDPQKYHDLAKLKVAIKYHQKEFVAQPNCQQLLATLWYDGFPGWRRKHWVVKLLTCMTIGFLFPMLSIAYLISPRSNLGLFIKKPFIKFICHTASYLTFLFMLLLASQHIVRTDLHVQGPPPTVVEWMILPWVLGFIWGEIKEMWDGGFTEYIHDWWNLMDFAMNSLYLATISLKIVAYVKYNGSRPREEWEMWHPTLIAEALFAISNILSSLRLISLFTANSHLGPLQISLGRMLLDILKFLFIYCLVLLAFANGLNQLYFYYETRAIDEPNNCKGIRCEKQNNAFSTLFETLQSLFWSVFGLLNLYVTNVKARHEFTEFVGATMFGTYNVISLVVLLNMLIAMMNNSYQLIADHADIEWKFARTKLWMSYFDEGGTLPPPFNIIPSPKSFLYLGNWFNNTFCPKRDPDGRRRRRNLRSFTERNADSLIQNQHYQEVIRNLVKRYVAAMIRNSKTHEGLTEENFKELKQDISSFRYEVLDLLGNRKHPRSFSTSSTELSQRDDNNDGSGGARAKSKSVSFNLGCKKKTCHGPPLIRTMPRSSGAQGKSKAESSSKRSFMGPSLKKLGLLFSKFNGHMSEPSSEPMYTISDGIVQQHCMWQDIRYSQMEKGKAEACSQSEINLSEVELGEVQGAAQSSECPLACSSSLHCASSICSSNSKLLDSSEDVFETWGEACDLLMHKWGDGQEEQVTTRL
Description: FIG. 4 TRPC5 overexpressing cells, fura, OAG in the presence of Ca2+. In kind it is cell-based. As to conditions: TRPC5 O/E cells, N=4. From the text:
The assay was done in the presence of Ca^2+. OAG (1-Oleoyl-2-acetyl-sn-glycerol) is a cell permeable DAG analog and directly activates these TRPC channels (i.e. TRPC4 and TRPC5).

In the next assay the target is T2, TRPC3 (Homo sapiens, UniProt Q13507).
T2 construct: expressed in transfected cells
T2 sequence (Q13507 1-921): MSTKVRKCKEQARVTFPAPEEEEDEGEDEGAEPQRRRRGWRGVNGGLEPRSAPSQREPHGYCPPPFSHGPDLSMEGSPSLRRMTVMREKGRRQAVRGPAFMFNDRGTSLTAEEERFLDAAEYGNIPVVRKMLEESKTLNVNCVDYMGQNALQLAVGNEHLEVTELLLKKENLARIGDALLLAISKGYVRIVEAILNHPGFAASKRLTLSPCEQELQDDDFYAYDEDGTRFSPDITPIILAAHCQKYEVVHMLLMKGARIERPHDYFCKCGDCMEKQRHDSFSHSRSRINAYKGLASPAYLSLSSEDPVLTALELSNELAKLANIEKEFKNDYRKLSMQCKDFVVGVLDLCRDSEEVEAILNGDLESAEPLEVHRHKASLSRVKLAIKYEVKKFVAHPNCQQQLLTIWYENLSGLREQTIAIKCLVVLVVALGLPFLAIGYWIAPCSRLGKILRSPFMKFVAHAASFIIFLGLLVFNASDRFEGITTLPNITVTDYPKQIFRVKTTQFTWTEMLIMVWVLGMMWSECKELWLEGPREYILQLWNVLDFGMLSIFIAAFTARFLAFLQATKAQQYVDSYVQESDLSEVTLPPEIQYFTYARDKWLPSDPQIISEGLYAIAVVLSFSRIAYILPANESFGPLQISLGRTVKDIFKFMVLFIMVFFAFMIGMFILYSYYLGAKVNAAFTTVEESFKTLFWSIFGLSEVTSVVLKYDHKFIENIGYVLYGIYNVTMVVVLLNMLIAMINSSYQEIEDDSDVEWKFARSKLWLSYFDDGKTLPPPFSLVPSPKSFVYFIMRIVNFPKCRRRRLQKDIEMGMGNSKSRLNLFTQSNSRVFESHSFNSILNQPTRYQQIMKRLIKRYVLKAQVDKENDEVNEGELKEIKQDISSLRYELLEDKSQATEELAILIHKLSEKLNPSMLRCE
Description: OAG-induced Ca2+ entry in Fura2-loaded HEK293 cells expressing TRPC3. In kind it is cell-based. As to conditions: ELP-004 0 to 1 mM for 10 minutes before OAG, FIG. 1D, read-out: IC50, inhibition of OAG-induced Ca2+ entry. The method, then: Inhibition of DAG-mediated TRPC activation. To determine if ELP-004 (N-MeDCPA) inhibits DAG-induced TRPC activation, HEK293 cells expressing TRPC3, TRPC6 or TRPC7 were loaded with Fura2 and incubated with ELP-004 (0 to 1 mM) for 10 minutes prior to challenging with 1-Oleoyl-2-acetyl-sn-glycerol (OAG), a membrane permeable form of diacylglycerol.
Cell Culture—HEK293 cells were grown in DMEM with 4.5 g/L glucose supplemented with 10% FBS and 1% Gentamycin (Full DMEM media; Thermo-Fisher Scientific, Waltham, MA) at 37° C. and 5% CO2. […]
TRPC activity assay—Cells grown on glass coverslips were incubated in a cation-safe buffer (107 mM NaCl, 7.2 mM KCl, 1.2 mM MgCl2, 11.5 mM Glucose, 20 mM HEPES-NaOH, 1 mM CaCl2), pH 7.2) and loaded with Fura2-acetoxymethylester (Fura2-AM; 2 μM) for 30 min at 24° C. as previously described^10,11. […] Ca^2+/Sr^2+ measurements were taken using a Leica DMI 6000B fluorescence microscope controlled by Slidebook software (Intelligent Imaging Innovations, Denver, CO). Fluorescence emission at 505 nm was monitored in response to excitation at alternating 340 nm and 380 nm wavelengths at a frequency of 0.67 Hz; intracellular Ca^2+ measurements are shown at 340/380 nm ratios obtained from groups of 35-45 single cells.

On to `CCC(=O)N(C)c1ccc(Cl)c(Cl)c1` [ELP-004, N-(3,4-dichlorophenyl)-N-methylpropanamide], for which, at TRPC5, the “maximal inhibition of TRPC5 against the >50% threshold” value is given as “does not reach the threshold of >50% inhibition”. The IC50 on TRPC5 (OAG, Ca2+ present) is 11 nM; on TRPC3 it was 1000 to 2000 nM.
